Source: patent publication US11214594B2, “Antimicrobial peptide having synergistic antibacterial effect with antibiotics on multidrug resistant bacteria, and use thereof” (priority 2016, dated 2022)
≈ marks a conversion by molar mass, not a printed value. Where a SMILES comes first, the peptide text is derived from it.

Tests used:
E. coli [1] = assay: microbe, parasite or virus in culture; assay type: cell-based, Escherichia coli
Outline: (§1)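 MIC read-out = lowest peptide level with no bacterial proliferation. Strains diluted in MH medium to 2×10^6 CFU; peptide twofold serial dilutions in MH added 1:1 in microtiter wells.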

MDREC 1229 [2] = assay: microbe, parasite or virus in culture; assay type: cell-based, Escherichia coli
Outline: as §1

MDREC 1238 = assay type: cell-based, Escherichia coli
Outline: as §1

P. aeruginosa = assay: microbe, parasite or virus in culture; assay type: cell-based, Pseudomonas aeruginosa
Outline: as §1

MDRPA 2002 = assay type: cell-based, Pseudomonas aeruginosa
Outline: as §1

MDRPA 2003 = assay type: cell-based, Pseudomonas aeruginosa
Outline: as §1

MDRST 8007 = assay: Minimal inhibitory concentration (MIC), single agent; assay type: cell-based, Salmonella typhimurium; details: agent alone
Outline: as §1

B. subtilis = assay: microbe, parasite or virus in culture; assay type: cell-based, Bacillus subtilis
Outline: as §1

S. epidermidis = assay: microbe, parasite or virus in culture; assay type: cell-based, Staphylococcus epidermidis
Outline: as §1

S. aureus = assay: microbe, parasite or virus in culture; assay type: cell-based, Staphylococcus aureus
Outline: as §1

MRSA 3114 = assay type: cell-based, Staphylococcus aureus; details: 3114
Outline: as §1

MRSA 3126 = assay type: cell-based, Staphylococcus aureus; details: 3126
Outline: as §1

E. coli [3] = assay: MIC of antibiotic during combined treatment with antimicrobial peptide; assay type: cell-based, Escherichia coli; details: for Antibiotic MIC, Erythromycin / Antibiotic MIC, Linezolid / Antibiotic MIC, Vancomycin: E. coli
Outline: (§2)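 MIC values for mixed peptide plus antibiotic solutions were measured in MH medium.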

MDREC 1229 [4] = assay: as above; assay type: cell-based, Escherichia coli
Outline: (§3)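 Antibiotic MIC came from antibiotic dilutions added to bacteria (2×10^6 CFU/ml, MH medium) already combined with peptide serially diluted 2:1 from its own MIC. Swapping the roles of the two agents gave the peptide MIC.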

A. baumannii = assay: as above; assay type: cell-based, Acinetobacter baumannii; details: for Antibiotic MIC, Erythromycin / Antibiotic MIC, Linezolid / Antibiotic MIC, Vancomycin: A. baumannii
Outline: as §2

MDRAB 12035 = assay: as above; assay type: cell-based, Acinetobacter baumannii
Outline: as §3

[5] = peptide treatment concentration 1 μg/ml
[6] = peptide treatment concentration 2 μg/ml
[7] = peptide treatment concentration 4 μg/ml
[8] = peptide treatment concentration 6 μg/ml
[9] = peptide treatment concentration 8 μg/ml
[10] = peptide treatment concentration 16 μg/ml
[11] = peptide treatment concentration 32 μg/ml
[12] = peptide treatment concentration 64 μg/ml
[13] = combined with peptide at 1 μg/ml
[14] = combined with peptide at 2 μg/ml
[15] = combined with peptide at 4 μg/ml
[16] = combined with peptide at 6 μg/ml
[17] = combined with peptide at 8 μg/ml
[18] = combined with peptide at 16 μg/ml
[19] = combined with peptide at 32 μg/ml
[20] = combined with peptide at 64 μg/ml

CC[C@H](C)[C@H](NC(=O)[C@H](CCCCN)NC(=O)[C@H](Cc1c[nH]c2ccccc12)NC(=O)[C@@H](N)CCCNC(=N)N)C(=O)N[C@@H](Cc1ccccc1)C(=O)N[C@@H](CCCCN)C(=O)N[C@@H](CCCCN)C(=O)N[C@H](C(=O)N1CCC[C@H]1C(=O)N[C@@H](CCCCN)C(=O)N[C@@H](CC(C)C)C(=O)N[C@@H](CC(C)C)C(=O)N[C@@H](Cc1c[nH]cn1)C(=O)N[C@@H](CO)C(=O)N[C@@H](C)C(=O)N[C@@H](CCCCN)C(=O)N[C@@H](CCCCN)C(=O)N[C@@H](Cc1c[nH]c2ccccc12)C(N)=O)[C@@H](C)CC [PapMA-9, RWK IFK KIP KLL HSA KKW-NH2] (H-RWKIFKKIPKLLHSAKKW-NH2; N-terminus assumed)
Minimal inhibitory concentration MIC (E. coli [1]; 16 h): 32 µg/mL (≈ 13.9 µM) | Antibacterial activity relative to PapMA-1 (E. coli [1]; E. coli): at least twice as high | Minimal inhibitory concentration MIC (MDREC 1229 [2]): 64 µg/mL (≈ 27.7 µM) | Minimal inhibitory concentration MIC (MDREC 1238): 64 µg/mL (≈ 27.7 µM) | Minimal inhibitory concentration MIC (P. aeruginosa): 8 µg/mL (≈ 3.47 µM) | Minimal inhibitory concentration MIC (MDRPA 2002): 16 µg/mL (≈ 6.94 µM) | Minimal inhibitory concentration MIC (MDRPA 2003): 16 µg/mL (≈ 6.94 µM) | Minimal inhibitory concentration MIC (MDRST 8007): 64 µg/mL (≈ 27.7 µM) | Minimal inhibitory concentration MIC (B. subtilis): >128 µg/mL | Minimal inhibitory concentration MIC (S. epidermidis): >128 µg/mL | Minimal inhibitory concentration MIC (S. aureus): >128 µg/mL | Minimal inhibitory concentration MIC (MRSA 3114): >128 µg/mL | Minimal inhibitory concentration MIC (MRSA 3126): >128 µg/mL | Synergistic effect of antibacterial activity with existing antibiotics compared with PapMA-1 (E. coli [3]; E. coli and MDREC1229): higher level than the PapMA-1 peptide | Antibiotic MIC, Erythromycin (E. coli [3]; erythromycin combined with peptide at 1 μg/ml): 128 µg/mL | Antibiotic MIC, Erythromycin (E. coli [3]; erythromycin combined with peptide at 2 μg/ml): 64 µg/mL | Antibiotic MIC, Erythromycin (E. coli [3]; erythromycin combined with peptide at 4 μg/ml): 8 µg/mL | Antibiotic MIC, Erythromycin (E. coli [3]; erythromycin combined with peptide at 6 μg/ml): 2 µg/mL | Antibiotic MIC, Erythromycin (E. coli [3]; erythromycin combined with peptide at 8 μg/ml): 0.5 µg/mL | Antibiotic MIC, Erythromycin (E. coli [3]; erythromycin combined with peptide at 16 μg/ml): 0.125 µg/mL | Antibiotic MIC, Erythromycin (E. coli [3]; erythromycin combined with peptide at 32 μg/ml): 0 µg/mL | Antibiotic MIC, Erythromycin (E. coli [3]; erythromycin combined with peptide at 64 μg/ml): 0 µg/mL | Antibiotic MIC, Linezolid (E. coli [3]; linezolid combined with peptide at 1 μg/ml): >128 µg/mL | Antibiotic MIC, Linezolid (E. coli [3]; linezolid combined with peptide at 2 μg/ml): >128 µg/mL | Antibiotic MIC, Linezolid (E. coli [3]; linezolid combined with peptide at 4 μg/ml): 16 µg/mL | Antibiotic MIC, Linezolid (E. coli [3]; linezolid combined with peptide at 6 μg/ml): 8 µg/mL | Antibiotic MIC, Linezolid (E. coli [3]; linezolid combined with peptide at 8 μg/ml): 4 µg/mL | Antibiotic MIC, Linezolid (E. coli [3]; linezolid combined with peptide at 16 μg/ml): 2 µg/mL | Antibiotic MIC, Linezolid (E. coli [3]; linezolid combined with peptide at 32 μg/ml): 0 µg/mL | Antibiotic MIC, Linezolid (E. coli [3]; linezolid combined with peptide at 64 μg/ml): 0 µg/mL | Antibiotic MIC, Vancomycin (E. coli [3]; vancomycin combined with peptide at 1 μg/ml): >128 µg/mL | Antibiotic MIC, Vancomycin (E. coli [3]; vancomycin combined with peptide at 2 μg/ml): >128 µg/mL | Antibiotic MIC, Vancomycin (E. coli [3]; vancomycin combined with peptide at 4 μg/ml): 64 µg/mL | Antibiotic MIC, Vancomycin (E. coli [3]; vancomycin combined with peptide at 6 μg/ml): 16 µg/mL | Antibiotic MIC, Vancomycin (E. coli [3]; vancomycin combined with peptide at 8 μg/ml): 8 µg/mL | Antibiotic MIC, Vancomycin (E. coli [3]; vancomycin combined with peptide at 16 μg/ml): 2 µg/mL | Antibiotic MIC, Vancomycin (E. coli [3]; vancomycin combined with peptide at 32 μg/ml): 0 µg/mL | Antibiotic MIC, Vancomycin (E. coli [3]; vancomycin combined with peptide at 64 μg/ml): 0 µg/mL | Antibiotic MIC, Erythromycin (MDREC 1229 [4]; [5]): 64 µg/mL | Antibiotic MIC, Linezolid (MDREC 1229 [4]; [5]): 128 µg/mL | Antibiotic MIC, Vancomycin (MDREC 1229 [4]; [5]): >128 µg/mL | Antibiotic MIC, Erythromycin (MDREC 1229 [4]; [6]): 64 µg/mL | Antibiotic MIC, Linezolid (MDREC 1229 [4]; [6]): 64 µg/mL | Antibiotic MIC, Vancomycin (MDREC 1229 [4]; [6]): >128 µg/mL | Antibiotic MIC, Erythromycin (MDREC 1229 [4]; [7]): 8 µg/mL | Antibiotic MIC, Linezolid (MDREC 1229 [4]; [7]): 32 µg/mL | Antibiotic MIC, Vancomycin (MDREC 1229 [4]; [7]): 128 µg/mL | Antibiotic MIC, Erythromycin (MDREC 1229 [4]; [8]): 2 µg/mL | Antibiotic MIC, Linezolid (MDREC 1229 [4]; [8]): 16 µg/mL | Antibiotic MIC, Vancomycin (MDREC 1229 [4]; [8]): 32 µg/mL | Antibiotic MIC, Erythromycin (MDREC 1229 [4]; [9]): 1 µg/mL | Antibiotic MIC, Linezolid (MDREC 1229 [4]; [9]): 8 µg/mL | Antibiotic MIC, Vancomycin (MDREC 1229 [4]; [9]): 8 µg/mL | Antibiotic MIC, Erythromycin (MDREC 1229 [4]; [10]): 0.5 µg/mL | Antibiotic MIC, Linezolid (MDREC 1229 [4]; [10]): 4 µg/mL | Antibiotic MIC, Vancomycin (MDREC 1229 [4]; [10]): 4 µg/mL | Antibiotic MIC, Erythromycin (MDREC 1229 [4]; [11]): 0.125 µg/mL | Antibiotic MIC, Linezolid (MDREC 1229 [4]; [11]): 2 µg/mL | Antibiotic MIC, Vancomycin (MDREC 1229 [4]; [11]): 2 µg/mL | Antibiotic MIC, Erythromycin (MDREC 1229 [4]; [12]): 0 µg/mL | Antibiotic MIC, Linezolid (MDREC 1229 [4]; [12]): 0 µg/mL | Antibiotic MIC, Vancomycin (MDREC 1229 [4]; [12]): 0 µg/mL | Synergistic effect of antibacterial activity with existing antibiotics compared with PapMA-1 (A. baumannii; A. baumannii and MDRAB 12035): higher level than the PapMA-1 peptide | Antibiotic MIC, Erythromycin (A. baumannii; [13]): 32 µg/mL | Antibiotic MIC, Linezolid (A. baumannii; [13]): >128 µg/mL | Antibiotic MIC, Vancomycin (A. baumannii; [13]): >128 µg/mL | Antibiotic MIC, Erythromycin (A. baumannii; [14]): 8 µg/mL | Antibiotic MIC, Linezolid (A. baumannii; [14]): 128 µg/mL | Antibiotic MIC, Vancomycin (A. baumannii; [14]): 128 µg/mL | Antibiotic MIC, Erythromycin (A. baumannii; [15]): 4 µg/mL | Antibiotic MIC, Linezolid (A. baumannii; [15]): 8 µg/mL | Antibiotic MIC, Vancomycin (A. baumannii; [15]): 32 µg/mL | Antibiotic MIC, Erythromycin (A. baumannii; [16]): 2 µg/mL | Antibiotic MIC, Linezolid (A. baumannii; [16]): 8 µg/mL | Antibiotic MIC, Vancomycin (A. baumannii; [16]): 16 µg/mL | Antibiotic MIC, Erythromycin (A. baumannii; [17]): 0.25 µg/mL | Antibiotic MIC, Linezolid (A. baumannii; [17]): 2 µg/mL | Antibiotic MIC, Vancomycin (A. baumannii; [17]): 8 µg/mL | Antibiotic MIC, Erythromycin (A. baumannii; [18]): 0.125 µg/mL | Antibiotic MIC, Linezolid (A. baumannii; [18]): 0.5 µg/mL | Antibiotic MIC, Vancomycin (A. baumannii; [18]): 2 µg/mL | Antibiotic MIC, Erythromycin (A. baumannii; [19]): 0 µg/mL | Antibiotic MIC, Linezolid (A. baumannii; [19]): 0 µg/mL | Antibiotic MIC, Vancomycin (A. baumannii; [19]): 0 µg/mL | Antibiotic MIC, Erythromycin (A. baumannii; [20]): 0 µg/mL | Antibiotic MIC, Linezolid (A. baumannii; [20]): 0 µg/mL | Antibiotic MIC, Vancomycin (A. baumannii; [20]): 0 µg/mL | Erythromycin MIC during combined treatment with peptide (MDRAB 12035; [5]): 16 µg/mL | Linezolid MIC during combined treatment with peptide (MDRAB 12035; [5]): >128 µg/mL | Vancomycin MIC during combined treatment with peptide (MDRAB 12035; [5]): >128 µg/mL | Erythromycin MIC during combined treatment with peptide (MDRAB 12035; [6]): 16 µg/mL | Linezolid MIC during combined treatment with peptide (MDRAB 12035; [6]): 64 µg/mL | Vancomycin MIC during combined treatment with peptide (MDRAB 12035; [6]): 128 µg/mL | Erythromycin MIC during combined treatment with peptide (MDRAB 12035; [7]): 4 µg/mL | Linezolid MIC during combined treatment with peptide (MDRAB 12035; [7]): 32 µg/mL | Vancomycin MIC during combined treatment with peptide (MDRAB 12035; [7]): 64 µg/mL | Erythromycin MIC during combined treatment with peptide (MDRAB 12035; [8]): 0.5 µg/mL | Linezolid MIC during combined treatment with peptide (MDRAB 12035; [8]): 16 µg/mL | Vancomycin MIC during combined treatment with peptide (MDRAB 12035; [8]): 16 µg/mL | Erythromycin MIC during combined treatment with peptide (MDRAB 12035; [9]): 0.25 µg/mL | Linezolid MIC during combined treatment with peptide (MDRAB 12035; [9]): 4 µg/mL | Vancomycin MIC during combined treatment with peptide (MDRAB 12035; [9]): 8 µg/mL | Erythromycin MIC during combined treatment with peptide (MDRAB 12035; [10]): 0.25 µg/mL | Linezolid MIC during combined treatment with peptide (MDRAB 12035; [10]): 4 µg/mL | Vancomycin MIC during combined treatment with peptide (MDRAB 12035; [10]): 8 µg/mL | Erythromycin MIC during combined treatment with peptide (MDRAB 12035; [11]): 0.125 µg/mL | Linezolid MIC during combined treatment with peptide (MDRAB 12035; [11]): 2 µg/mL | Vancomycin MIC during combined treatment with peptide (MDRAB 12035; [11]): 2 µg/mL | Erythromycin MIC during combined treatment with peptide (MDRAB 12035; [12]): 0 µg/mL | Linezolid MIC during combined treatment with peptide (MDRAB 12035; [12]): 0 µg/mL | Vancomycin MIC during combined treatment with peptide (MDRAB 12035; [12]): 0 µg/mL
